{
  "source": "patent US7071182B2",
  "about": "“Antagonists of melanin concentrating hormone effects on the melanin concentrating hormone receptor” (Abbott Laboratories, priority 2003, dated 2006)",
  "experiment": "Pharmacokinetic drug levels in whole brain after 10 mpk oral dose in DIO mice",
  "type": "in vivo",
  "details": "harvested 0.5-24 h after the dose",
  "data": [
    {"smiles": "O=C(Nc1ccc(Oc2ccccc2)cc1)Nc1ccc2c(cnn2CCN2CCCC2)c1", "note": "[Example 24, N-(4-phenoxyphenyl)-N′-[1-(2-pyrrolidin-1-ylethyl)-1H-indazol-5-yl]urea]", "values": [
      {"measurement": "Brain Conc. AUC", "value": 1428, "unit": "ng·h/g"}
    ]}
  ]
}
